# According to patent publication US20180161288A1, “TAU AGGREGATION INHIBITOR” (National Center for Geriatrics and Gerontology, priority 2011, published 2018):
# Columns and labels:
# [1] = molecular target: T1, tau (Homo sapiens, UniProt P10636); assay: thioflavine T stain of heparin-induced tau aggregation; assay type: biochemical; details: 10 μM tau
# [2] = system: P301L tau Tg mice; assay: sarkosyl-insoluble tau in brains of P301L tau Tg mice; assay type: in vivo
# [3] = molecular target: T2, WT tau (Homo sapiens, UniProt P10636); assay: MC1 dot blotting and AT8 phosphorylation in WT tau-expressing COS-7 cells; assay type: cell-based, African green monkey
# T2 construct: expressed in transfected cells; host or cells: COS-7 (African green monkey kidney)
# T2 sequence (P10636 1-441 isoform P10636-8): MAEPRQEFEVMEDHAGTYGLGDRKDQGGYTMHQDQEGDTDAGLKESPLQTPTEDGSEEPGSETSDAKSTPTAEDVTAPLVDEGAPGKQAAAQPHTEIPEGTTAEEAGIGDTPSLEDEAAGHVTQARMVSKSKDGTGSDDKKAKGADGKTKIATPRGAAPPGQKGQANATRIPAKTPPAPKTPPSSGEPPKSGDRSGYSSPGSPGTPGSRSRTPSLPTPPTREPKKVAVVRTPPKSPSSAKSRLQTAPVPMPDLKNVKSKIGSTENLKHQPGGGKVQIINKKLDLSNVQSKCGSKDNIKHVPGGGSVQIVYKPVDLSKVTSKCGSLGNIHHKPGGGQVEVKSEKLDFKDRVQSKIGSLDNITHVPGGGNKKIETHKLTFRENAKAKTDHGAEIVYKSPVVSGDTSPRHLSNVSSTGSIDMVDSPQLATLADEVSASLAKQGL
# Source text: Tau phosphorylations at AT8 sites are known to induce a tau conformational change (that can be detected with the MC1 antibody) observed in AD brains. Thus, WT tau was expressed in COS-7 cells (derived from African green monkey kidney), and a tau conformational change was detected by dot blotting using the MC1 antibody. The dot blotting is a technique of fixing protein to a nitrocellulose membrane or a PVDF membrane without separation through electrophoresis and specifically quantitating the protein amount with enzyme-labeled antibodies.
# [4] = molecular target: T1, tau; assay: sucrose-density gradient centrifugation with SDS-PAGE western blotting of tau; assay type: biochemical; details: for amount of tau in fractions Fr3, 4, 5, and 6: compound 100 μM, FIG. 2; for amount of tau (granular and filamentous tau aggregates) fractionated into Fr3 and subsequent fractions: FIG. 11
# [5] = system: WT tau Tg mice; assay: tau dephosphorylation (tau1 antibody) in TBS-soluble fractions from WT tau Tg mice; assay type: in vivo; details: TBS-soluble fraction; FIG. 9
# Source text: A change in tau phosphorylation in TBS-soluble fractions from WT tau Tg mice was investigated.
# [6] = molecular target: T3, human P301L mutant tau (Homo sapiens, UniProt P10636, P618L); assay: SDS-insoluble tau in Neuro2a cells expressing P301L mutant tau; assay type: cell-based; details: Neuro2a cells, 0.01, 0.1 and 1 μM isoprenaline for 48 hours; FIG. 3
# T3 construct: expressed in transfected cells
# T3 sequence (P10636 1-441 isoform P10636-8 P301L): as the sequence (P10636 1-441 isoform P10636-8) above, with P301L counted along it
# [7] = molecular target: T3, human P301L mutant tau; assay: tau phosphorylation (AT8) in RIPA-soluble fractions of Neuro2a cells; assay type: cell-based; details: RIPA-soluble fraction, FIG. 4
# Protocol: As cells, Neuro2a cell lines in which human P301L mutant tau (i.e., mutant tau in which 301st proline of tau is changed to leucine) is expressed in stable were used. […] Then, SDS-insoluble fractions were obtained so that a change in the amounts of tau was observed.
# In addition, changes of tau phosphorylation in radio-immunoprecipitation assay (RIPA) buffer-soluble fractions obtained from similar cells were analyzed. […] The composition of the RIPA buffer was 50 mM Tris-HCl (pH7.4), 150 mM sodium chloride, 0.25 w/v % sodium deoxycholate, 1 mM EGTA, and 1.0 w/v % NP-40 substitute.
# [8] = molecular target: T2, WT tau; assay: tau and acetylated tubulin in microtubule fraction of WT tau-expressing COS-7 cells; assay type: cell-based, African green monkey; details: 10 μM, 24 hours
# Protocol: The homogenates were then centrifuged at 3000×g for 5 min at 25° C., and thea supernatant was obtained as a total fraction. The total fraction was further centrifuged at 100000×g for 20 min at 20° C., and a pellet (a microtubule fraction) was obtained. In this manner, the microtubule fraction was taken from the COS-7 cells expressing WT tau, and acetylated tubulin serving as an index of tau and microtubule stabilization was detected.
# [9] = molecular target: T1, tau; assay: quantification of insoluble tau pellet after centrifugation at 250000 xg; assay type: biochemical; details: pellet after 250000 xg for 2 h
# Protocol: For this analysis, 10-μM tau, a compound (1 μM, 10 μM, or 100 μM), and thioflavine T (a beta-pleated sheet structure-specific detection reagent) were mixed together. Thereafter, heparin, which is a tau aggregation inducer, was added to the mixture, and the resulting mixture was incubated at 37° C., thereby allowing tau to aggregate. Subsequently, the thioflavine T activity in an incubation sample was measured at various times to investigate tau aggregation inhibition effects by the compounds.
# To further investigate the effects of these nine compounds on tau aggregation specifically, samples that had been incubated at 37° C. were centrifuged at 250000 ×g for 2 h, the resultant pellets were obtained so that the amount of insoluble tau were quantified.
# [10] = molecular target: T1, tau; assay: atomic force microscope observation of tau aggregation; assay type: biochemical; details: sample incubated for 120 hours; FIG. 12
# Protocol: Thereafter, to analyze a change of tau aggregation by d-isoprenaline morphologically, the sample was investigated by using an atomic force microscope. A tau aggregation sample that had been incubated for 120 hours was loaded on a mica board and adsorbed thereon. […] FIG. 12A is a photograph of a control, FIG. 12B is a photograph showing effects of d-isoprenaline on a tau aggregation sample, and FIG. 12C is a graph of measured major axes of tau aggregation.
# T1 sequence (P10636 1-441 isoform P10636-8): as the sequence (P10636 1-441 isoform P10636-8) above
smiles,measurement,setting,value
CC(C)NCC(O)c1ccc(O)c(O)c1 (centres unmarked) [isoprenaline],thioflavine T activity,"[1]; FIG. 1, heparin, 37° C.",significantly reduced thioflavine T activity
same,amount of sarkosyl-insoluble tau in the brains,"[2]; 1.5 mg/g fed mixed in mash for three months, FIG. 7",reduced the amount of sarkosyl-insoluble tau
same,tau phosphorylation (AT8 sites),[3]; FIG. 5C,also reduced phosphorylation
same,tau conformational change detected with MC1 antibody,"[3]; TBS-soluble fraction, FIG. 5A, 5B",reduced the tau conformational change
same,"amount of tau in fractions Fr3, 4, 5, and 6",[4],"reduced the amount of tau in fractions Fr3, 4, 5, and 6"
same,dephosphorylation of tau labeled by tau1 antibody,[5],induced dephosphorylation of tau
same,amount of SDS-insoluble tau,[6],reduced the amounts of SDS-insoluble tau
same,tau phosphorylation (AT8),[7],reduced tau phosphorylation
same,amount of tau in the microtubule fraction,[8]; FIG. 6A-C,increased the amount of tau in the microtubule fraction
same,amount of acetylated tubulin,[8]; FIG. 6D-F,further increased the amount of acetylated tubulin
CNC[C@H](O)c1ccc(O)c(O)c1 [(R)-(−)-epinephrine],thioflavine T activity,"[1]; FIG. 1, heparin, 37° C.",significantly reduced thioflavine T activity
same,"amount of tau in fractions Fr3, 4, 5, and 6",[4],"reduced the amount of tau in fractions Fr3, 4, 5, and 6"
same,amount of insoluble tau,[9],reduced the amount of insoluble tau in a concentration dependent manner
"CC(C)NC[C@@H](O)c1ccc(O)c(O)c1 [d-isoprenaline, (S)-(+)-isoprenaline]",thioflavine T activity,"[1]; compound 1-100 μM, FIG. 10",inhibition of thioflavine T activity similar to that of d/l-isoprenaline
same,amount of insoluble tau in cerebral cortices,"[2]; mice aged 20-21 months, 2.168 mg/g fed in mash for three months, FIGS. 13, 14",apparently reduced the amount of insoluble tau
same,amount of insoluble tau in hippocampi,"[2]; mice aged 20-21 months, 2.168 mg/g fed in mash for three months, FIGS. 15, 16",apparently reduced the amount of insoluble tau
same,number of tau aggregates having major axes of 20 nm or more,[10],apparently reduced the number of tau aggregates
same,amount of tau (granular and filamentous tau aggregates) fractionated into Fr3 and subsequent fractions,[4],apparently reduced the amount of tau
NCCc1ccc(O)c(O)c1 [dopamine],thioflavine T activity,"[1]; FIG. 1, heparin, 37° C.",significantly reduced thioflavine T activity
NC[C@H](O)c1ccc(O)c(O)c1 [norepinephrine],thioflavine T activity,"[1]; FIG. 1, heparin, 37° C.",significantly reduced thioflavine T activity
"CC(C)NCC(O)c1ccc(O)c(O)c1 (racemic) [d/l-isoprenaline, mixture of (S)-(+)-isoprenaline and (R)-(−)-isoprenaline]",thioflavine T activity,"[1]; compound 1-100 μM, FIG. 10",inhibition of thioflavine T activity
same,amount of tau (granular and filamentous tau aggregates) fractionated into Fr3 and subsequent fractions,[4],apparently reduced the amount of tau
[Cl-].[Li+] [lithium chloride],amount of SDS-insoluble tau,[6],reduced the amounts of SDS-insoluble tau
